Experimental findings from patent US12065430B2, “Indazole compound or salt thereof” (TAIHO PHARMACEUTICAL CO., LTD., priority 2018, dated 2024) are described below.

Structures are written as SMILES.

This experiment has as its target G12C K-Ras4B (1-169) (Homo sapiens (Human), UniProt P01116, G12C). Nature of the experiment: Test of compounds on whether to bind to KRASG12C (LC-MS compound binding rate). The note with it: final compound concentration of 2 μM, 1 μM protein, 25° C. for 2 hours. The gist of the method: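 K-Ras4B (1-169) WT and G12C (1 μM each, mixed) in 1×TBS, 0.1 mM TCEP incubated with compound (final 2 μM) 2 h at 25° C; quenched with 0.2% formic acid. Intact-protein LC-MS (ESI+, deconvoluted); binding rate = adduct signal/(adduct + unbound signal), giving selectivity over WT.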
Turning to `C=CC(=O)N1C[C@@H](CC#N)[C@@H](NC(=O)c2c(C)nc(CNc3n[nH]c4cc(Cl)c(C(C)(C)C)cc34)n2C)C1` [Example 65, N-((3R,4R)-1-acryloyl-4-(cyanomethyl)pyrrolidin-3-yl)-2-(((5-(tert-butyl)-6-chloro-1H-indazol-3-yl)amino)methyl)-1,4-dimethyl-1H-imidazole-5-carboxamide], the “binding rate for G12C K-Ras4B (1-169)” value was “B (a binding rate of 60% or more and less than 80% is rated “B,”)”.
Consider `C=CC(=O)N1CC(NC(=O)c2c(Cl)nc(CNc3n[nH]c4cc(Cl)c(C(C)(C)C)cc34)n2[C@@H]2CCN(CC(F)F)C2)C1` [Example 113, (R)—N-(1-acryloylazetidin-3-yl)-2-(((5-(tert-butyl)-6-chloro-1H-indazol-3-yl)amino)methyl)-4-chloro-1-(1-(2,2-difluoroethyl)pyrrolidin-3-yl)-1H-imidazole-5-carboxamide], for which the “binding rate for G12C K-Ras4B (1-169)” value is listed as “A (a binding rate of 80% or more is rated “A,”)”.
Regarding `C=CC(=O)N1CC[C@@H](N(C)C(=O)c2cnc(CNc3n[nH]c4cc(Cl)c(C(C)(C)C)cc34)n2C)C1` [Example 77, (R)—N-(1-acryloylpyrrolidin-3-yl)-2-(((5-(tert-butyl)-6-chloro-1H-indazol-3-yl)amino)methyl)-N,1-dimethyl-1H-imidazole-5-carboxamide], the “binding rate for G12C K-Ras4B (1-169)” value was “C (a binding rate of 40% or more and less than 60% is rated “C,”)”.
Regarding `C=CC(=O)N1C[C@H](NC(=O)c2c(C)nc(CNc3n[nH]c4cc(Cl)c(C(C)(C)C)cc34)n2C)[C@@H](O)C1` [Example 62, N-((3S,4S)-1-acryloyl-4-hydroxypyrrolidin-3-yl)-2-(((5-(tert-butyl)-6-chloro-1H-indazol-3-yl)amino)methyl)-1,4-dimethyl-1H-imidazole-5-carboxamide], the “binding rate for G12C K-Ras4B (1-169)” value is on record as “A (a binding rate of 80% or more is rated “A,”)”.
The entry for `C=CC(=O)N1CC(N(C)C(=O)c2c(C)nc(CNc3n[nH]c4cc(Cl)c(C(C)(C)C)cc34)n2C)C1` [Example 49, N-(1-acryloylazetidin-3-yl)-2-(((5-(tert-butyl)-6-chloro-1H-indazol-3-yl)amino)methyl)-N,1,4-trimethyl-1H-imidazole-5-carboxamide] is “C (a binding rate of 40% or more and less than 60% is rated “C,”)”.
Regarding `CC(C)n1c(CNc2n[nH]c3cc(Cl)c(C(C)(C)C)cc23)nc(C(F)F)c1C(=O)NC1CN(C(=O)/C=C/CN(C)C)C1` [Example 84, (E)-2-(((5-(tert-butyl)-6-chloro-1H-indazol-3-yl)amino)methyl)-4-(difluoromethyl)-N-(1-(4-(dimethylamino)but-2-enoyl)azetidin-3-yl)-1-isopropyl-1H-imidazole-5-carboxamide], the “binding rate for G12C K-Ras4B (1-169)” value was “C (a binding rate of 40% or more and less than 60% is rated “C,”)”.
With `C=CC(=O)N1CC(NC(=O)c2c(Cl)c(CNc3n[nH]c4cc(Cl)c(C(C)(C)C)cc34)nn2C)C1` [Example 6, N-(1-acryloylazetidin-3-yl)-3-(((5-(tert-butyl)-6-chloro-1H-indazol-3-yl)amino)methyl)-4-chloro-1-methyl-1H-pyrazole-5-carboxamide] the entry was “B (a binding rate of 60% or more and less than 80% is rated “B,”)”.
As for `C=CC(=O)N1CC(NC(=O)c2c(C)nc(CNc3n[nH]c4cc(Cl)c(C(C)(C)C)cc34)n2CCN(C)C)C1` [Example 16, N-(1-acryloylazetidin-3-yl)-2-(((5-(tert-butyl)-6-chloro-1H-indazol-3-yl)amino)methyl)-1-(2-(dimethylamino)ethyl)-4-methyl-1H-imidazole-5-carboxamide], the “binding rate for G12C K-Ras4B (1-169)” value is “B (a binding rate of 60% or more and less than 80% is rated “B,”)”.
Regarding `C=CC(=O)N1CC(NC(=O)c2c(Cl)nc(CNc3n[nH]c4cc(Cl)c(C(C)(C)C)cc34)n2[C@@H]2C[C@@H](O)[C@@H](O)C2)C1` [Example 99], the “binding rate for G12C K-Ras4B (1-169)” value is “A (a binding rate of 80% or more is rated “A,”)”.
